The source of these data is publication PMC6458995, “MAP4K4 Inhibition Promotes Survival of Human Stem Cell-Derived Cardiomyocytes and Reduces Infarct Size In Vivo” (Cell Stem Cell, 2019).

SMILES strings stand for the structures.

Holding throughout (assay): Dundee kinase panel
Type in all cases: biochemical
Common to all, as to settings: for remaining activity at 1 µM: read-out: residual activity

One test concerns the target T1, CK1γ2 (Homo sapiens, UniProt P78368).
T1 construct: lines 1-140) and Reaction Biology
As for the experimental part: (§1) Compounds were screened at 1 μM. For key hits, pIC50 values were then determined by HTRF as above. […] Stability in mouse and human liver microsomes was determined by Cyprotex.

The next test deals with T2, PAK2 (Homo sapiens, UniProt Q13177).
T2 construct: lines 1-140) and Reaction Biology
T2 sequence (Q13177 whole entry): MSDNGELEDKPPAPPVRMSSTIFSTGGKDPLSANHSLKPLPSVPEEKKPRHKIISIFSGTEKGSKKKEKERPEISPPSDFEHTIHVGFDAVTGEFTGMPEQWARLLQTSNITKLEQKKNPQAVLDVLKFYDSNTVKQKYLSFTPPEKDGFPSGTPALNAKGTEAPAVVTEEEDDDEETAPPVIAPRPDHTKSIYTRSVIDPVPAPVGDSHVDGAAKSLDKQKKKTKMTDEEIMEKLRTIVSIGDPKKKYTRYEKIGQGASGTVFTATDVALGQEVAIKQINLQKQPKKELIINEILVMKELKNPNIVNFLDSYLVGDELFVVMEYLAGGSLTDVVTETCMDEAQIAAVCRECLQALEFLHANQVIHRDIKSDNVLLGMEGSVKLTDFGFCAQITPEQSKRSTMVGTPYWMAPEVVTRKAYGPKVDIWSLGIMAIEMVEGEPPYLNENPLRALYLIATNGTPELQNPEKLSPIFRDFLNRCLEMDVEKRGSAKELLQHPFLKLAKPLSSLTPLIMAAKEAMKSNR
Here is the method:
as §1

Another test concerns the target T3, MAPKAP-K2 (Homo sapiens, UniProt P49137).
T3 construct: lines 1-140) and Reaction Biology
As for the experimental part: as §1

In another test the target is T4, PAK4 (Homo sapiens, UniProt O96013).
T4 construct: lines 1-140) and Reaction Biology
T4 sequence (O96013 whole entry): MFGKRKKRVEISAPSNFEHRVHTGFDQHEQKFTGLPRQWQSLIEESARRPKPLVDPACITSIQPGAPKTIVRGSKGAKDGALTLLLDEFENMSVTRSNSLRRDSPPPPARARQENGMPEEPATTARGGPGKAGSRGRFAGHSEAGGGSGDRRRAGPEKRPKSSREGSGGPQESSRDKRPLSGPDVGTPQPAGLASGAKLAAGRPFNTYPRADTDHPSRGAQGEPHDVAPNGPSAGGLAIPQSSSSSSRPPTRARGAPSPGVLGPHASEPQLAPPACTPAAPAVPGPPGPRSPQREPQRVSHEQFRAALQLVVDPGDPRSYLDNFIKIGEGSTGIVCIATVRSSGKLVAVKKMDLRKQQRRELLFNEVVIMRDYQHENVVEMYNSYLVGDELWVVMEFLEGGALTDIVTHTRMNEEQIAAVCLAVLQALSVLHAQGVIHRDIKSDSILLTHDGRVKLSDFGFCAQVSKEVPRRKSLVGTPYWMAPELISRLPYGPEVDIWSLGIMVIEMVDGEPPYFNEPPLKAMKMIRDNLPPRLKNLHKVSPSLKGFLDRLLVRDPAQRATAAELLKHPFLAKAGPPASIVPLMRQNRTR
Here is the method:
as §1

In the next test the target is T5, JAK2 (Homo sapiens, UniProt O60674).
T5 construct: lines 1-140) and Reaction Biology
T5 sequence (O60674 whole entry): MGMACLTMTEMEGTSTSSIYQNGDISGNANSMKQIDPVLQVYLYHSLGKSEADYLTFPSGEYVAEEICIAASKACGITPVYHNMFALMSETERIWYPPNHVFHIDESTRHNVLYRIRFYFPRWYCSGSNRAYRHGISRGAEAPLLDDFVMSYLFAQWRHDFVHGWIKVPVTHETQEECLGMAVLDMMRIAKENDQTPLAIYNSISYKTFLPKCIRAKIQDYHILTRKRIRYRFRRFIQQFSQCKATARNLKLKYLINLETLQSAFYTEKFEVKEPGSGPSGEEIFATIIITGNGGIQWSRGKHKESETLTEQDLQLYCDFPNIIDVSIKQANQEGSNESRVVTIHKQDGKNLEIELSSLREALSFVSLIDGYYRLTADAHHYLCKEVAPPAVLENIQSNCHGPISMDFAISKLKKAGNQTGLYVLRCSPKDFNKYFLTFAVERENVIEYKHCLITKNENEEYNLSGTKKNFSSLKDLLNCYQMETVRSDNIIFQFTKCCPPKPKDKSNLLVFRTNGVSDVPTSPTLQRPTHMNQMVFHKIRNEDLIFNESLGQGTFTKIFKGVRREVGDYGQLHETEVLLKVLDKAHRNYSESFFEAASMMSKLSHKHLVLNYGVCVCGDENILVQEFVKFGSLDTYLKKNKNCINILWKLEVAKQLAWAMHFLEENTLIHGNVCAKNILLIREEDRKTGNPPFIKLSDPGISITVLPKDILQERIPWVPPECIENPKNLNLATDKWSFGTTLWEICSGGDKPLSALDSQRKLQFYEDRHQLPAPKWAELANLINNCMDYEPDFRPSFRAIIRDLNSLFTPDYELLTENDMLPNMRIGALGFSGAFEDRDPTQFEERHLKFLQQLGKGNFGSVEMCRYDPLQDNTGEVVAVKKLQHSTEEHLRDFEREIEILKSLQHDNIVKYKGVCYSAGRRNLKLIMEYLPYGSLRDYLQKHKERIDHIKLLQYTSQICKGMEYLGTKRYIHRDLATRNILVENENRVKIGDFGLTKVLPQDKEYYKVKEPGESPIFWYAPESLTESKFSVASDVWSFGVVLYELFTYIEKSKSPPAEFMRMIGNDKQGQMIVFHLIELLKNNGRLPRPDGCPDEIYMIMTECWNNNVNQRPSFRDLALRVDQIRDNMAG
Here is the method: as §1

In the next test the target is T6, EPH-B1 (Homo sapiens, UniProt P54762).
T6 construct: lines 1-140) and Reaction Biology
T6 sequence (P54762 18-984): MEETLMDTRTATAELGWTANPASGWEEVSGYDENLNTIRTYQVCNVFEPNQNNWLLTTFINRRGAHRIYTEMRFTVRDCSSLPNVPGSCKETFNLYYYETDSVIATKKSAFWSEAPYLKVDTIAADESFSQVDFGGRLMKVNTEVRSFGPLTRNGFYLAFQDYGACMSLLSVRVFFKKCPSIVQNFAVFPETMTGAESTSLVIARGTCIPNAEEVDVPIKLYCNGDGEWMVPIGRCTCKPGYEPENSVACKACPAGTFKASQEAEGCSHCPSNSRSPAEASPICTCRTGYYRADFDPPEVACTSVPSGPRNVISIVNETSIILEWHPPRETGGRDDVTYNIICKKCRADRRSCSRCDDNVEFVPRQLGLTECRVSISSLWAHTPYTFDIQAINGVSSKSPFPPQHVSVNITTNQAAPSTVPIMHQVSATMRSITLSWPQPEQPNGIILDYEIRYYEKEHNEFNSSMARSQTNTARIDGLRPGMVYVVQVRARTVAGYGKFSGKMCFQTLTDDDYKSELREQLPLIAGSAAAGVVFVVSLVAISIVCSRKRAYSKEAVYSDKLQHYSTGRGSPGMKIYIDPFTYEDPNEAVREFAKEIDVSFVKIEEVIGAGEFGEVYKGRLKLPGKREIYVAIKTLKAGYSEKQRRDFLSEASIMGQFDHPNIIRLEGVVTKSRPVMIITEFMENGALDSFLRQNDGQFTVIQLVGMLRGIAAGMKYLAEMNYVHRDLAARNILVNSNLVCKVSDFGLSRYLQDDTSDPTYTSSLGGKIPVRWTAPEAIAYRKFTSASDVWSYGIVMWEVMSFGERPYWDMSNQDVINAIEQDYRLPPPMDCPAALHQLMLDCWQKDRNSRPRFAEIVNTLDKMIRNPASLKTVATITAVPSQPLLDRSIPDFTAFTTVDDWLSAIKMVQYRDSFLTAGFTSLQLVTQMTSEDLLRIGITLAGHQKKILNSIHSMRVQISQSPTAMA
Here is the method: as §1

The next test addresses T7, HIPK3 (Homo sapiens, UniProt Q9H422).
T7 construct: lines 1-140) and Reaction Biology
Here is the method:
as §1

The target in another test is T8, ASK1 (Homo sapiens, UniProt Q99683).
T8 construct: lines 1-140) and Reaction Biology
T8 sequence (Q99683 1-1374): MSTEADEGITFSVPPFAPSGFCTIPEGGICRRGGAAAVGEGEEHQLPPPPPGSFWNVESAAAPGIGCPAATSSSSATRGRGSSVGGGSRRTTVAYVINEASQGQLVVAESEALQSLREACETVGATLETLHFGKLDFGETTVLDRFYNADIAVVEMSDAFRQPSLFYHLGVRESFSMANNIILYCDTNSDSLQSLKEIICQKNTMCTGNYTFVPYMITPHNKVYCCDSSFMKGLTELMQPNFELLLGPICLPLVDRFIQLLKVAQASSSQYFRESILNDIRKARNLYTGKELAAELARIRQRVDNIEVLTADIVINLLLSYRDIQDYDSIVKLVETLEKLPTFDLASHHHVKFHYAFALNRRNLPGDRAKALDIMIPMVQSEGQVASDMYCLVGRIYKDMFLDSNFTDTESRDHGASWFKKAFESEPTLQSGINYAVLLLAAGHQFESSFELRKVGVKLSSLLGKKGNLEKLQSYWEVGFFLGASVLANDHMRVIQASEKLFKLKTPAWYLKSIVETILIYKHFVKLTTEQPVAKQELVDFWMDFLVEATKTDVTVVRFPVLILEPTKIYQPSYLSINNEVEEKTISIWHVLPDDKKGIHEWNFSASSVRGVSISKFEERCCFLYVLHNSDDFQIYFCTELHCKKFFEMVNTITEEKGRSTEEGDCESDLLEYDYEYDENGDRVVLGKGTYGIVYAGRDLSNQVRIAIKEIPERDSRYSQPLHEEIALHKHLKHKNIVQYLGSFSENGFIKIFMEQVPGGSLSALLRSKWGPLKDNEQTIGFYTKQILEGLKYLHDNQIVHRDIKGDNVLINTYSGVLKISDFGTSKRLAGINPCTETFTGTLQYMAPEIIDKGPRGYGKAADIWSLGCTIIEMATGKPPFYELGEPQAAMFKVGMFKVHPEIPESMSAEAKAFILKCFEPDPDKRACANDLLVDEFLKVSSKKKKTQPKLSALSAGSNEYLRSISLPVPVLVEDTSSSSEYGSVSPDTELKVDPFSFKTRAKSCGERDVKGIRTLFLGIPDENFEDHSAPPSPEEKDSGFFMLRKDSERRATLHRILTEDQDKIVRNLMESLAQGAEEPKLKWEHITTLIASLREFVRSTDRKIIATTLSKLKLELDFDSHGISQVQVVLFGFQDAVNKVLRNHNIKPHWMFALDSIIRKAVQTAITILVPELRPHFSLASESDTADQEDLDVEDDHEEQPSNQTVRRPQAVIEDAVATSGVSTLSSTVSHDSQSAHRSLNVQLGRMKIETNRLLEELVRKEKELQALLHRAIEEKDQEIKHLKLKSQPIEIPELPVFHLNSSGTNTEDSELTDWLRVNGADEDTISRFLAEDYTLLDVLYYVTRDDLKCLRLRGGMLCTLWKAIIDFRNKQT
As for the experimental part: as §1

T7 sequence (Q9H422 whole entry): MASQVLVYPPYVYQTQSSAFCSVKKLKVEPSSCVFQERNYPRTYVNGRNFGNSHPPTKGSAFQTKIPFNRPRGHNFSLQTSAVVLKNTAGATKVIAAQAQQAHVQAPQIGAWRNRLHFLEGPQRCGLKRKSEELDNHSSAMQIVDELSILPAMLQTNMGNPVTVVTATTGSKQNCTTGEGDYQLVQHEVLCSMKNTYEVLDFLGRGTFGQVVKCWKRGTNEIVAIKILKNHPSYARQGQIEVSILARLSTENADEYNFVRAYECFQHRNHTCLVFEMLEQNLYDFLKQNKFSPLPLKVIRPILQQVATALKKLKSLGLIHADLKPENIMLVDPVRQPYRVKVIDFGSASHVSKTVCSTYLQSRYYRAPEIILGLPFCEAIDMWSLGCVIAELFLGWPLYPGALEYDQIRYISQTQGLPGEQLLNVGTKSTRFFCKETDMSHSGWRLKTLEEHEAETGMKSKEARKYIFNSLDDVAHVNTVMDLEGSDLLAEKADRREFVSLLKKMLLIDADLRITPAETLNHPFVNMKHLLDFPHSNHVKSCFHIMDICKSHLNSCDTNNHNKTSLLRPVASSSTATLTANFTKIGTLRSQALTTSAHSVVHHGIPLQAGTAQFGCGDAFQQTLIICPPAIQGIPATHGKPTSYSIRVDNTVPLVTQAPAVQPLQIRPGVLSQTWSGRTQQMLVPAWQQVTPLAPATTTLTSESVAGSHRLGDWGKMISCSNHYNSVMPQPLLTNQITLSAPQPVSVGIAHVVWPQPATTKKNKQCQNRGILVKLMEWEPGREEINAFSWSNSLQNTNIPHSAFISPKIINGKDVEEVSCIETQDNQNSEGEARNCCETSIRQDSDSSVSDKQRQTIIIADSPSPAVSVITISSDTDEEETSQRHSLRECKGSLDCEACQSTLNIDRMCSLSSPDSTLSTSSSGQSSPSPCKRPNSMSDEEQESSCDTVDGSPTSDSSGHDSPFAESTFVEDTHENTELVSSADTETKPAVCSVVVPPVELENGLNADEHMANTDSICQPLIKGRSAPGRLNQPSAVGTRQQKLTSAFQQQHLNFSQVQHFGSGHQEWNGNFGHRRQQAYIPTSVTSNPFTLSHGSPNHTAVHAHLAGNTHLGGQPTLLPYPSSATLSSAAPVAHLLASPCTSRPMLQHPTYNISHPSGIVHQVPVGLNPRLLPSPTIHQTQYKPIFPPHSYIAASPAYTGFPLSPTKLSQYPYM
T1 sequence (P78368 whole entry): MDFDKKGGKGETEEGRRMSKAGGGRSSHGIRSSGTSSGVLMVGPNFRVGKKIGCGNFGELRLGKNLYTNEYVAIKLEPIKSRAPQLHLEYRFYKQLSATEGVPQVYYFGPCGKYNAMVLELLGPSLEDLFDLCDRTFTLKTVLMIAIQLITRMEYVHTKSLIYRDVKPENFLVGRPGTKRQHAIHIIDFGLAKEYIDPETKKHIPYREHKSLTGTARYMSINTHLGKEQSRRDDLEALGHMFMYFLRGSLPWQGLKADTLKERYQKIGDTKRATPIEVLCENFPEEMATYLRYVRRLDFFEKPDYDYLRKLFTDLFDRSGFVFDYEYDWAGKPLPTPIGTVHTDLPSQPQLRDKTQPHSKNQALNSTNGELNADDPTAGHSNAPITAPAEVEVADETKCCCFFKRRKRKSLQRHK
T3 sequence (P49137 whole entry): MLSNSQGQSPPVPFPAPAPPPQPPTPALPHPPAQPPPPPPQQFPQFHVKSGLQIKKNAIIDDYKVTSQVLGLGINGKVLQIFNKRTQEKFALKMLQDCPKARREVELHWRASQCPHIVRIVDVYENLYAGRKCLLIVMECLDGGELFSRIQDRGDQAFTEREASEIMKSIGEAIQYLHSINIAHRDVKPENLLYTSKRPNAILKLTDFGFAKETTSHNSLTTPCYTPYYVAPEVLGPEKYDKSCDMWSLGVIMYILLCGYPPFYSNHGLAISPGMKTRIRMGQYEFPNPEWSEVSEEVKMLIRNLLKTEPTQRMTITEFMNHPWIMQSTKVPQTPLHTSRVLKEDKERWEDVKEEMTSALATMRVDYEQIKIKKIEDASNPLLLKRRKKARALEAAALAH

`COCCOc1ccc(-c2cn(-c3ccccc3)c3nc[nH]c(=O)c23)cc1` [DMX-5804, 5-[4-(2-methoxy-ethoxy)-phenyl]-7-phenyl-3,7-dihydro-pyrrolo[2,3-d]pyrimidin-4-one]: the remaining activity at 1 µM amounted to 103% on CK1γ2; 93% at PAK2; 105% on MAPKAP-K2; 100% at PAK4; 70% at JAK2; 108% on EPH-B1. The remaining activity at 1 µM at HIPK3 was 103%; at ASK1, 108%.
Take `Oc1ncnc2c1c(-c1ccccc1)cn2-c1ccccc1` [F1386-0303, 5,7-diphenyl-7H-pyrrolo[2,3-d]pyrimidin-4-ol]: the remaining activity at 1 µM worked out at 106% on CK1γ2; 79% at PAK2; 101% on MAPKAP-K2; 105% at PAK4; 94% at JAK2; 86% at EPH-B1. In addition, the remaining activity at 1 µM on HIPK3 and at ASK1 was 93% throughout.
The residual activity is the signal under treatment as a percentage of the control signal. Consider `Nc1ncc(C(=O)NC2CN(C(=O)C3CC3)C2)c2ccc(-c3cccc(F)c3)nc12` [GNE-495], for which the residual activity at CK1γ2 (1 μM) came out at 107%; at PAK2 (1 μM) it was 94%; at MAPKAP-K2 (1 μM) it was 101%; on PAK4 (1 μM), 28%; on JAK2 (1 μM) it was 76%; at EPH-B1 (1 μM) it was 99%. The residual activity at HIPK3 (1 μM) is 81%; on ASK1 (1 μM), 84%.
On to `O=C1Nc2ccc(I)cc2/C1=C/c1cc(Br)c(O)c(Br)c1` [GW5074], for which the remaining activity at 1 µM on CK1γ2 was 68%; on PAK2, 29%; at MAPKAP-K2, 81%; on PAK4 it was 94%; on JAK2, 82%; on EPH-B1, 94%. Moreover, the remaining activity at 1 µM on HIPK3 stood at 25%; on ASK1, 56%.
For the molecule `O=C1Cc2c([nH]c3ccc(Br)cc23)-c2ccccc2N1` [Kenpaullone], the remaining activity at 1 µM at CK1γ2 is 81%; at PAK2 it was 96%; on MAPKAP-K2, 89%; at PAK4 it was 104%; at JAK2 it was 105%; on EPH-B1, 94%. The remaining activity at 1 µM at HIPK3 worked out at 87%; at ASK1 it was 68%.
